Data: BindingDB's records for patent US9796704 (SYMPHONY EVOLUTION, INC., 2017)

Experiments:
Assay in all cases: AlphaScreen Assay
[1] = molecular target: Vascular endothelial growth factor receptor 2 (Homo sapiens, UniProt P35968)
Protocol: (§1) In AlphaScreen, when the donor and acceptor beads are close in proximity, a series of photochemical events will give rise to a fluorescent signal upon light activation. Here we use biotinylated poly-(Glu, Tyr) 4:1 as the kinase substrate, streptavidin-coated donor beads and anti-phosphortyrosine antibody PY100-coated acceptor beads. […] Compounds, ATP, biotinylated poly-(Glu, Tyr) and kinases are mixed in a volume of 20 μL for 1 hr at ambient temperature using Greiner 384-well white clear bottom medium binding plates. Then 10 uL solution containing 15-30 mg/mL AlphaScreen beads, 75 mM Hepes, pH 7.4, 300 mM NaCl, 120 mM EDTA, 0.3% BSA and 0.03% Tween-20 is added to each well. After 2-16 hr incubation of the beads, plates are read in a Perkin Elmer AlphaQuest reader (available from PerkinElmer Life and Analytical Sciences, Inc., of Boston Mass.).

[2] = molecular target: Ephrin type-A receptor 2 (Homo sapiens, UniProt P29317)
Protocol: as §1

[3] = molecular target: Receptor tyrosine-protein kinase erbB-2 (Homo sapiens, UniProt P04626)
Protocol: as §1

[4] = molecular target: T1, Ephrin type-B receptor 4 (Homo sapiens, UniProt P54760)
T1 sequence (P54760 whole entry): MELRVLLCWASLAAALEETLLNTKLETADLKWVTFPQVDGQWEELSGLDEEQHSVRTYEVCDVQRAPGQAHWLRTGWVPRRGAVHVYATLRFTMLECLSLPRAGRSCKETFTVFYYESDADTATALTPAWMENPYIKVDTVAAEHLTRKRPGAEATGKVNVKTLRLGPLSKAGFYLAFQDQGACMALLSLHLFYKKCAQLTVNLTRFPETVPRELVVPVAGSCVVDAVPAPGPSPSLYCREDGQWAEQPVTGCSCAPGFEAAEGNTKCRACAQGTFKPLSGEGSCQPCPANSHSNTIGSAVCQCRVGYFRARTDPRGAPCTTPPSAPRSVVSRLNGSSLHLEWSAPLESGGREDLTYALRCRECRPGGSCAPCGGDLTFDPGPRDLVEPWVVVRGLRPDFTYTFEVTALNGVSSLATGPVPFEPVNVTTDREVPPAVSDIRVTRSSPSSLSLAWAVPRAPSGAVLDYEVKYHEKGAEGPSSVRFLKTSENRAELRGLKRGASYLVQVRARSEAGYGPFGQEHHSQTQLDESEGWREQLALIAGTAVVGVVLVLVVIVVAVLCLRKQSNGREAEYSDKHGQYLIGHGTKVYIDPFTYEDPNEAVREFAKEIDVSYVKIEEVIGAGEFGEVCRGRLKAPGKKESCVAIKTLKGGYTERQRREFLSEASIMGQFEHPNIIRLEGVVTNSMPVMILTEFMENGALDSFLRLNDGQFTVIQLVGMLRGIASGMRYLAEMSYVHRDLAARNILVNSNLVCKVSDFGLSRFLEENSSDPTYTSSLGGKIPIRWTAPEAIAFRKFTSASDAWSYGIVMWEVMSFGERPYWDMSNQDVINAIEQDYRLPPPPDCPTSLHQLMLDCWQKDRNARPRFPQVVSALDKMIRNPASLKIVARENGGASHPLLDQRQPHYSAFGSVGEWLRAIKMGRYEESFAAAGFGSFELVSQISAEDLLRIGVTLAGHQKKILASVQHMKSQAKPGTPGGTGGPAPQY
Protocol: as §1

Chain of Vascular endothelial growth factor receptor 2 (P35968 whole entry): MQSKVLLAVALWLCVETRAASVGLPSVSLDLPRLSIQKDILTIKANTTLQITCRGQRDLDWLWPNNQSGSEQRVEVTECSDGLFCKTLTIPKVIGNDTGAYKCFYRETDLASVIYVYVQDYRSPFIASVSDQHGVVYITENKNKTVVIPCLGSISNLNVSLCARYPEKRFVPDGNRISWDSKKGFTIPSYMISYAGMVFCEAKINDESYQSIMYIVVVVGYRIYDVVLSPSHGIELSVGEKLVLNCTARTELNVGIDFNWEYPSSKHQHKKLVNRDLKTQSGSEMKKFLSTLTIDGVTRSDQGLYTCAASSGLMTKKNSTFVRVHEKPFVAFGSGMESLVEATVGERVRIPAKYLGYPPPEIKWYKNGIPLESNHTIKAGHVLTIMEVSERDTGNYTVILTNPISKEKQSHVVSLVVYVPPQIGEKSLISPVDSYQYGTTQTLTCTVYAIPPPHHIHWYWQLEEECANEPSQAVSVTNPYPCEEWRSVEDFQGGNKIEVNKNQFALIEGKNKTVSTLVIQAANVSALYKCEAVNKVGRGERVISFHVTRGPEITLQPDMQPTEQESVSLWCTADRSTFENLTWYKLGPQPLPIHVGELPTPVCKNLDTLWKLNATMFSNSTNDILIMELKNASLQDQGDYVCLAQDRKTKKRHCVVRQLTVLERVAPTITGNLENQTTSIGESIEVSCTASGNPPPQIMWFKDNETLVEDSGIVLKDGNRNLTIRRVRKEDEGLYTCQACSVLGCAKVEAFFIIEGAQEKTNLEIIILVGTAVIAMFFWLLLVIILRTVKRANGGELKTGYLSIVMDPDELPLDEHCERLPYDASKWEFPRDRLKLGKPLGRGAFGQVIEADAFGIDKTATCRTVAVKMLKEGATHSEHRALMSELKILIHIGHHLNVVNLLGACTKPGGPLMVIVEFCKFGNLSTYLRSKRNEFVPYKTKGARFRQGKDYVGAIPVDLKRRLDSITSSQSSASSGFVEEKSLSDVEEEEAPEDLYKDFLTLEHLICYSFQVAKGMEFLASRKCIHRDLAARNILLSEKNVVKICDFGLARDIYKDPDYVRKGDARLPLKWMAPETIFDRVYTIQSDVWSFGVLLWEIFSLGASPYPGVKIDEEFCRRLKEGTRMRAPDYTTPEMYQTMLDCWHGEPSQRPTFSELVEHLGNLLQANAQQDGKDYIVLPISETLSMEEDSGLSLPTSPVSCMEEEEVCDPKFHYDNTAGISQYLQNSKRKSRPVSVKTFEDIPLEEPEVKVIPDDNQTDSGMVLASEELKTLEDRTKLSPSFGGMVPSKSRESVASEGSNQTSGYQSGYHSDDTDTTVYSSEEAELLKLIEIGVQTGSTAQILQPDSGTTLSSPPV
Chain of Ephrin type-A receptor 2 (P29317 whole entry): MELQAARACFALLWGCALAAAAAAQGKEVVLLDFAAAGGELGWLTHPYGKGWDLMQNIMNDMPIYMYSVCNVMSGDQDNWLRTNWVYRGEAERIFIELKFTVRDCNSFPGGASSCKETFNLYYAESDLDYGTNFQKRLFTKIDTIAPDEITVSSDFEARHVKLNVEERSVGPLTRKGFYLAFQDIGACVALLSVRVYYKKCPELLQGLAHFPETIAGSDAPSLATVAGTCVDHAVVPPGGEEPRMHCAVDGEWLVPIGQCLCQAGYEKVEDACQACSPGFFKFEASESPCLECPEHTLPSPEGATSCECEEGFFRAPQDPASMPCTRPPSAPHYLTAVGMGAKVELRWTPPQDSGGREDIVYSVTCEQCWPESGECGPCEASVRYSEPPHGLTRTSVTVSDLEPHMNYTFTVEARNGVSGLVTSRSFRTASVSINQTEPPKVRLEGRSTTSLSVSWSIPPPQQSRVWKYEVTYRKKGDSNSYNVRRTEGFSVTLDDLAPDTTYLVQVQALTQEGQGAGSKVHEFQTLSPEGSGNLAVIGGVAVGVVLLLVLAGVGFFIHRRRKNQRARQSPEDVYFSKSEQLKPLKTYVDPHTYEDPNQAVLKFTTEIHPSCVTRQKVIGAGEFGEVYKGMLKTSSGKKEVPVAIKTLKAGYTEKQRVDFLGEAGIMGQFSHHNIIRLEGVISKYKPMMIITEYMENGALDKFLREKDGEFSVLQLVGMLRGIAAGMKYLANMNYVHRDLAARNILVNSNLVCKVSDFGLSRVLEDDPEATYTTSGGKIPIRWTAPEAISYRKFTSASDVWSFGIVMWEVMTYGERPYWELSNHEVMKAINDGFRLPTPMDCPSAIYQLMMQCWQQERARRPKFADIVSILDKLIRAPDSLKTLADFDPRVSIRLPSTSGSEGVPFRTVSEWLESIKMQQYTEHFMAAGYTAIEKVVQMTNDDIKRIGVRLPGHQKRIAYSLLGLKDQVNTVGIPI
Chain of Receptor tyrosine-protein kinase erbB-2 (P04626 whole entry): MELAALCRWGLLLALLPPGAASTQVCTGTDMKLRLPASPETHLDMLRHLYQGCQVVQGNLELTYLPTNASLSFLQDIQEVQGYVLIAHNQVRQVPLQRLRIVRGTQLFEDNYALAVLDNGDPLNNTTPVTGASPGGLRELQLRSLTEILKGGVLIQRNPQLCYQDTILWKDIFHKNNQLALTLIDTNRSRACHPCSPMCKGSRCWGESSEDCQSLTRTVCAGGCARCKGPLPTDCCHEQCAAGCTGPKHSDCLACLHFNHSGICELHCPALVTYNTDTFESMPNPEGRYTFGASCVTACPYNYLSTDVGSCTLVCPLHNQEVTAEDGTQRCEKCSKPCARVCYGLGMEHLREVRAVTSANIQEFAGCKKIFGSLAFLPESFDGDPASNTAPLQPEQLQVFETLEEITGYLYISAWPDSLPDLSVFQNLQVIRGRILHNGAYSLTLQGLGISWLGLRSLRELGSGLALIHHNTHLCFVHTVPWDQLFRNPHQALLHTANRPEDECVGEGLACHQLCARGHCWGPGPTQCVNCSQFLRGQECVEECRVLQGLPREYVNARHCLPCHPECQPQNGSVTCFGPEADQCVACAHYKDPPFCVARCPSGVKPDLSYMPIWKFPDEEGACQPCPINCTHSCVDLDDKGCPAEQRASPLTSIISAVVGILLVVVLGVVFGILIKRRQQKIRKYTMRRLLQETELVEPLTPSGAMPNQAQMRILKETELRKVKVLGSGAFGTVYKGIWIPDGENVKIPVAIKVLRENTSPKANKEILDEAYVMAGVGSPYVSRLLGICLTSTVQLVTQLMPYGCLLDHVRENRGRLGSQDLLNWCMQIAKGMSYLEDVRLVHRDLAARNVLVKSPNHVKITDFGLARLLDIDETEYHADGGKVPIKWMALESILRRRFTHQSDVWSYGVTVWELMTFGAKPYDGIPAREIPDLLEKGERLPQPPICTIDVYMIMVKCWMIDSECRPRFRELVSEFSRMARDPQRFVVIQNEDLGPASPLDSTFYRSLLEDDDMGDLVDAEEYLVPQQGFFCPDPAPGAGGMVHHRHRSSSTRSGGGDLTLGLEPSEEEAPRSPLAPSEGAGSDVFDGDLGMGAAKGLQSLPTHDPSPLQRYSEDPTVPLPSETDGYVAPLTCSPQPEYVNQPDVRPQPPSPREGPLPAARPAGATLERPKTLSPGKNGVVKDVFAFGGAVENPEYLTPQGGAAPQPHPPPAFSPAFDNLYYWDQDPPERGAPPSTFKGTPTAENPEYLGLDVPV

SMILES | IC50 [1] | IC50 [2] | IC50 [3] | IC50 [4]
COc1cc2c(Nc3ccc(Cl)c(Cl)c3)ncnc2cc1OCc1c(F)cccc1F [US9796704, Entry 233] | in the range around 525 nM | in the range around 525 nM | in the range around 10500 nM | –
COc1cc2c(Nc3cc(Cl)c(Br)cc3F)ncnc2cc1OC[C@@H]1CN2CCOCC2CO1 (some centres not stated) [US9796704, Entry 28] | – | < 50 nM | – | in the range around 525 nM
COc1cc2c(Nc3ccc(F)c(Cl)c3F)ncnc2cc1OC[C@@H]1CN2CCOCC2CO1 (some centres not stated) [US9796704, Entry 24] | – | – | – | in the range around 10500 nM
COc1cc2c(Nc3ccc(Br)c(Cl)c3F)ncnc2cc1OC[C@H]1C[C@H]2CNC[C@H]2C1 [US9796704, Entry 4] | – | – | – | < 50 nM
CCOC(=O)N1C[C@H]2CC(COc3cc4ncnc(Nc5ccc(Br)c(Cl)c5F)c4cc3OC)C[C@H]2C1 (some centres not stated) [US9796704, Entry 5] | in the range around 10500 nM | – | – | < 50 nM
COc1cc2c(Nc3ccc(Cl)c(Cl)c3)ncnc2cc1OCC1CN(C2CCCC2)CCO1 (configuration not stated) [US9796704, Entry 269] | in the range around 525 nM | in the range around 10500 nM | in the range around 10500 nM | –
COc1cc2c(Nc3ccc(F)cc3F)ncnc2cc1O[C@@H]1CO[C@@H]2[C@H]1OC[C@H]2F [US9796704, Entry 90] | – | in the range around 525 nM | – | in the range around 525 nM
COc1cc2c(Nc3c(F)cc(F)cc3Br)ncnc2cc1O[C@@H]1CO[C@@H]2[C@H]1OC[C@H]2F [US9796704, Entry 120] | – | in the range around 525 nM | – | in the range around 525 nM
COc1cc2c(Nc3ccc(Cl)c(Cl)c3)ncnc2cc1OC1C[C@@H]2CN(C)C[C@@H]2C1 (some centres not stated) [US9796704, Entry 59] | – | – | – | < 50 nM
COc1cc2c(Nc3ccc(Cl)c(Cl)c3)ncnc2cc1OCC1CN(C(=O)OC(C)(C)C)CCO1 (configuration not stated) [US9796704, Entry 148] | – | in the range around 525 nM | in the range around 525 nM | –
COc1cc2c(Nc3ccc(Cl)c(Cl)c3)ncnc2cc1OC[C@@H]1CN2CCC[C@@H]2CO1 [US9796704, Entry 33] | – | in the range around 525 nM | in the range around 525 nM | –
COc1ccc(OC)c(Nc2ncnc3cc(O[C@@H]4CO[C@@H]5[C@H]4OC[C@H]5F)c(OC)cc23)c1 [US9796704, Entry 134] | – | in the range around 525 nM | – | in the range around 525 nM
COc1cc2c(Nc3ccc(Br)c(Cl)c3F)ncnc2cc1OC[C@@H]1C[C@@H]2CN(C(C)=O)C[C@@H]2C1 [US9796704, Entry 3] | – | – | – | < 50 nM
COc1cc2c(Nc3ccc(Cl)c(Cl)c3)ncnc2cc1OCc1cccnc1 [US9796704, Entry 179] | in the range around 525 nM | – | – | in the range around 525 nM
COc1cc2c(Nc3ccc(Cl)c(Cl)c3)ncnc2cc1OCC1CN(CC2CC2)CCCO1 (configuration not stated) [US9796704, Entry 259] | in the range around 10500 nM | in the range around 10500 nM | in the range around 10500 nM | –
COc1cc2c(Nc3ccc(Cl)cc3Cl)ncnc2cc1O[C@@H]1CO[C@@H]2[C@H]1OC[C@H]2F [US9796704, Entry 117] | in the range around 525 nM | in the range around 525 nM | in the range around 525 nM | –
COc1cc2c(Nc3ccc(F)c(C(F)(F)F)c3)ncnc2cc1O[C@@H]1CO[C@@H]2[C@H]1OC[C@H]2F [US9796704, Entry 89] | – | – | – | in the range around 525 nM
COc1cc2c(Nc3ccc(Cl)c(Cl)c3)ncnc2cc1OCc1ccncc1 [US9796704, Entry 172] | in the range around 525 nM | in the range around 525 nM | in the range around 525 nM | –

SMILES | IC50 [1] | IC50 [2] | IC50 [3] | IC50 [4]
COc1cc2c(Nc3cc(Cl)c(Cl)cc3F)ncnc2cc1OC[C@@H]1CN2CCC[C@H]2CO1 [US9796704, Entry 40] | in the range around 525 nM | in the range around 525 nM | in the range around 10500 nM | –
CCCN1CCCOC(COc2cc3ncnc(Nc4ccc(Cl)c(Cl)c4)c3cc2OC)C1 (configuration not stated) [US9796704, Entry 258] | in the range around 10500 nM | in the range around 10500 nM | in the range around 10500 nM | –
COc1cc2c(Nc3cc(Cl)c(Cl)cc3F)ncnc2cc1OC[C@H]1CN2CCOCC2CO1 (some centres not stated) [US9796704, Entry 19] | < 50 nM | – | – | < 50 nM
COc1cc2c(Nc3ccc(Cl)c(Cl)c3)ncnc2cc1OCc1nnc(-c2ccc(C)cc2)o1 [US9796704, Entry 228] | in the range around 525 nM | – | in the range around 525 nM | –
COc1cc2c(Nc3ccc(Br)c(Cl)c3F)ncnc2cc1OC[C@@H]1C[C@@H]2CN(C(C)C)C[C@@H]2C1 [US9796704, Entry 2] | […] | – | – | < 50 nM
COc1cc2c(Nc3ccc(Cl)c(Cl)c3)ncnc2cc1OCc1csc(C2CCCCN2)n1 (configuration not stated) [US9796704, Entry 249] | in the range around 525 nM | – | in the range around 10500 nM | –
COc1cc2c(Nc3ccc(Cl)c(Cl)c3)ncnc2cc1OCc1csc(N(C)C)n1 [US9796704, Entry 240] | in the range around 525 nM | – | in the range around 525 nM | –
COc1cc2c(Nc3ccc(Cl)c(Cl)c3)ncnc2cc1OCC1CN(C(C)C)CCO1 (configuration not stated) [US9796704, Entry 270] | in the range around 525 nM | – | in the range around 525 nM | –
COc1cc2c(Nc3ccc(F)c(Cl)c3F)ncnc2cc1OC[C@H]1CN2CCOCC2CO1 (some centres not stated) [US9796704, Entry 21] | < 50 nM | – | – | < 50 nM
COc1cc2c(Nc3ccc(Cl)c(Cl)c3)ncnc2cc1OCc1csc(-c2ccc(Cl)cc2)n1 [US9796704, Entry 223] | in the range around 525 nM | – | in the range around 525 nM | –
COCCN1CCOC(COc2cc3ncnc(Nc4ccc(Cl)c(Cl)c4)c3cc2OC)C1 (configuration not stated) [US9796704, Entry 272] | in the range around 10500 nM | – | in the range around 525 nM | –
COc1cc2c(Nc3ccc(Cl)c(Cl)c3)ncnc2cc1OCc1csc(C2CCCNC2)n1 (configuration not stated) [US9796704, Entry 251] | in the range around 10500 nM | – | in the range around 10500 nM | –
COCCN1CCCOC(COc2cc3ncnc(Nc4ccc(Cl)c(Cl)c4)c3cc2OC)C1 (configuration not stated) [US9796704, Entry 260] | in the range around 10500 nM | – | in the range around 525 nM | –
CCN1CCCC1c1nc(COc2cc3ncnc(Nc4ccc(Cl)c(Cl)c4)c3cc2OC)no1 (configuration not stated) [US9796704, Entry 264] | in the range around 525 nM | – | in the range around 10500 nM | –
CCN1CCCCC1c1nc(COc2cc3ncnc(Nc4ccc(Cl)c(Cl)c4)c3cc2OC)cs1 (configuration not stated) [US9796704, Entry 253] | in the range around 10500 nM | – | in the range around 10500 nM | –
COc1cc2c(Nc3ccc(Cl)c(Cl)c3)ncnc2cc1OCc1csc(-c2ccc(C(F)(F)F)cc2)n1 [US9796704, Entry 222] | in the range around 525 nM | – | in the range around 525 nM | –
COc1cc2c(Nc3ccc(Cl)c(Cl)c3F)ncnc2cc1O[C@@H]1CO[C@@H]2[C@H]1OC[C@H]2F [US9796704, Entry 97] | – | in the range around 525 nM | in the range around 525 nM | –
